Data from patent US7863465B2, “Antifungal agents” (Merck Sharp & Dohme Corp., priority 2006, dated 2011).

What follows are compounds tested against T1, glucan synthase (GS) prepared from Candida albicans MY1055 (Candida albicans, UniProt O13428) (assay: Glucan synthase inhibition (polymerization assay, 96-well, 3H-UDPG incorporation)). Conditions: glucan synthase from C. albicans MY1055.
T1 construct: Extraction of GS activity from membranes was performed at a protein concentration of 5 mg/mL in extraction buffer; endogenous in cells; host or cells: Candida albicans MY1055 (membranes, detergent extract, product entrapment)
Format: biochemical
Description: The in vitro evaluation of glucan synthase inhibitory activity of compounds was measured in a polymerization assay in 96-well format. Each well contained 100 μL of ^3H-UDPG at 0.5 mM (6000 to 8000 dpm/nmol), 50 mM HEPES pH 7.5 (Sigma), 10% w/v glycerol (Sigma), 1.5 mg/mL bovine serum albumin (Sigma A 9647. Lot 44H0190), 25 mM KF (Fisher), 1 mM EDTA (Gibco Ultrapure), 25 μM GTP-γ-S, enzyme sufficient to give 3 to 6 nmoles incorporation during the 60 min incubation at 22° C., and test compound added from wells in 3-fold serial dilutions in 100% DMSO (1 μL/well). The reaction was stopped by the addition of 100 μL of 20% trichloroacetic acid. Plates were chilled for a minimum of 10 min, and precipitated glucan collected by filtration on GF/C plates (Packard Unifilter®-96), washed with 5 cycles of water (about 1 mL/well each cycle) using a Packard Filtermate Harvester. 40 μL/well scintillation fluid (Packard Ultima Gold TM-XR) was added and the sealed plates counted in a Wallac Beta counter in top-counting mode at an efficiency of approximately 40%.
Stock solutions were stored at 10 mg/mL in DMSO at −20° C. For each new enzyme preparation, the initial titration performed started at 1 mg/mL, which was prepared by making a 10-fold dilution in DMSO (5 μL to 50 μL). 40 μL of this stock was placed in column 12 of a round-bottomed 96-well microtiter plate. 40 μL DMSO was added to columns 1 to 11 in the same row and ten 3-fold serial dilutions performed, by transferring 20 μL from column 12 to column 11 etc., with 4 mixings before each transfer. No test compound was transferred to from column 2 to column 1. Duplicate aliquots of 1 μL of all 12 dilutions were then transferred to the side walls of a 96-well Bioblock 1.1 mL plate (Fisherbrand) to create two rows.
The results were tabulated and a standard plate background was subtracted and the net count transpose-pasted into a Prism file, with final compound concentrations used in ng/mL. Graphs were created in Prism software, using the average of two determinations, and using Prism's curve fitting program (sigmoidal dose response non-linear regression).
Routine analysis was performed with glucan synthase (GS) prepared from Candida albicans MY1055 by the following procedure: MY1055 was grown in 10 liters YPD medium (10 g yeast extract, 20 g tryptone, 20 g glucose per liter) with vigorous shaking at 30° C., to early stationary phase. Cells were harvested by centrifugation, the pellet was washed and frozen at −70° C. until breakage. Thawed pellets were shaken with an equal volume of breakage buffer (50 mM HEPES pH 7.4, 10% glycerol, 1 mM EDTA, 1 mM PMSF, 1 mM DTT) and 4 times their weight of 0.5 mm acid washed glass beads for 2 hours at 4° C. Extent of breakage was assessed visually at 40× magnification. For C. parapsilosis strains, shaking was extended to 3 hours to maximize breakage. After low speed centrifugation to remove cell debris, the supernatant was centrifuged at 100,000×g for 60 min. to separate membranes plus ribosomes from cytoplasmic components. Membranes were further washed two additional times with breakage buffer using the same centrifugation conditions and finally suspended in breakage buffer at 25 to 30 mg/mL protein (Biorad) for storage at −70° C. Extraction of GS activity from membranes was performed at a protein concentration of 5 mg/mL in extraction buffer (50 mM NaPO4 pH 7.5, 0.1 M KCl, 0.1M Na citrate, 20% glycerol, 5 μM GTP-γ-S, 1 mM DTT, 1 mM PMSF, 3 μg/mL pepstatin) plus 0.25% W1 by gentle mixing at 4° C. for 60 min, followed by centrifugation at 100,000×g for 60 min. After centrifugation, clear supernatant was removed from a pellet consisting of a hard layer usually with small amounts of gelatinous unextracted membranes above it. […]

T1 sequence (O13428 1-1897): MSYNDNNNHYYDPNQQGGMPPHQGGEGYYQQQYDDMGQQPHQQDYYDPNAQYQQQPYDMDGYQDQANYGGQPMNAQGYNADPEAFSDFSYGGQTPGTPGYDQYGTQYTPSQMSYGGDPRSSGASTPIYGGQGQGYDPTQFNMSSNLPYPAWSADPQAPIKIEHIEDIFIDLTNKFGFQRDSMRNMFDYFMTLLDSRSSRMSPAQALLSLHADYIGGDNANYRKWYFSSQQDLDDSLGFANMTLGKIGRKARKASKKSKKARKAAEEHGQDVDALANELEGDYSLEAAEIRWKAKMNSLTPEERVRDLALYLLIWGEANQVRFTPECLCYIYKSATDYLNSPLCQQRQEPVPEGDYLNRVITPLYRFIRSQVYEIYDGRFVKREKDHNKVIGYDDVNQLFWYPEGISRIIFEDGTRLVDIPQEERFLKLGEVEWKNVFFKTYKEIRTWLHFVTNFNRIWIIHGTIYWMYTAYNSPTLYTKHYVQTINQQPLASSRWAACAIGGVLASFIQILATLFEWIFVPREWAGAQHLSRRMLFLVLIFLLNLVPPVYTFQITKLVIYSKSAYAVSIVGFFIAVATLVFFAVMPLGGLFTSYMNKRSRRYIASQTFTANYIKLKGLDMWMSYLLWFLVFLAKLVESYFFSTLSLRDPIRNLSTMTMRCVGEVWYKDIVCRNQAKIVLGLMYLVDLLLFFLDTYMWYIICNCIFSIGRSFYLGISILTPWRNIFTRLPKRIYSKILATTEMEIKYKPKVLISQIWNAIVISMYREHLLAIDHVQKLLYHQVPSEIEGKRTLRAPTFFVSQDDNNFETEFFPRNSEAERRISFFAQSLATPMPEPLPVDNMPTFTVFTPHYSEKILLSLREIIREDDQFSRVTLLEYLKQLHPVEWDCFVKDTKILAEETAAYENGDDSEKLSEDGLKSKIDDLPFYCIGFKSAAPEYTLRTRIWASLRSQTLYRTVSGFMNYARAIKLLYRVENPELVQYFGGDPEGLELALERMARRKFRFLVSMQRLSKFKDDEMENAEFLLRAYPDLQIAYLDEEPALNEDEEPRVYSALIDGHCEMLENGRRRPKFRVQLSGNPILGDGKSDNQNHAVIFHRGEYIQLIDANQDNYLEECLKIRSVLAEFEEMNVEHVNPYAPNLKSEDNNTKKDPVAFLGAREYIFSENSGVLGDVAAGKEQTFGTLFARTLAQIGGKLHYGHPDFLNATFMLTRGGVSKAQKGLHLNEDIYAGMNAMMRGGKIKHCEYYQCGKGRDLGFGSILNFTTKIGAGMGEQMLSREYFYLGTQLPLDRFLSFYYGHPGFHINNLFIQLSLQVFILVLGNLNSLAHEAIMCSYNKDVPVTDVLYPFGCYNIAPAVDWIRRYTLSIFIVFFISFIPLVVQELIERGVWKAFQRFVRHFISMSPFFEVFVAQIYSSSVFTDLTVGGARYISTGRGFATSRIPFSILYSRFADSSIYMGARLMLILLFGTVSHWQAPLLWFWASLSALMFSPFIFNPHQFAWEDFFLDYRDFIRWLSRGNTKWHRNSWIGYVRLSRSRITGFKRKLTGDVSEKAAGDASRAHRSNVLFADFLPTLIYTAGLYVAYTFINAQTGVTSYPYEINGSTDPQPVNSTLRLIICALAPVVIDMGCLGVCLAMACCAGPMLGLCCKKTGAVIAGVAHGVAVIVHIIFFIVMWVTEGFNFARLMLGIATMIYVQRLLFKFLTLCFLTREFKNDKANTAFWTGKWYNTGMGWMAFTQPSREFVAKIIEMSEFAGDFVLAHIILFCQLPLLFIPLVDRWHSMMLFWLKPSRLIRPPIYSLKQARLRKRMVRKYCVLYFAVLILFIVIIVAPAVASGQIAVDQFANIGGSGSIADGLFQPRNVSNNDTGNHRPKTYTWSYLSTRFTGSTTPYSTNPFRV
T1 sequence (O42825 whole entry partner): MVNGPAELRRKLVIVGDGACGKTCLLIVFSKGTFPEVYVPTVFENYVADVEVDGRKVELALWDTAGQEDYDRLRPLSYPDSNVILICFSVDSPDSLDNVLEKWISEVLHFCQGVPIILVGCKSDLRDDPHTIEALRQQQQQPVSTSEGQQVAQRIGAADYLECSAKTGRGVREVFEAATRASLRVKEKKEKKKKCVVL

Question: For `COCC(CO[C@H]1[C@H](OC(C)=O)C[C@@]23COC[C@]1(C)[C@@H]2CC[C@H]1C3=CC(=O)[C@@]2(C)[C@H](C(=O)O)[C@@](C)([C@H](C)C(C)C)CC[C@]12C)N(C)C` (stereo partly drawn) [Example 65, (1S,2R,3R,4aR,6aS,7R,8R,10aR,10bR,12aR)-3-(acetyloxy)-2-(2-dimethylamino-3-methoxypropoxy)-8-[(1R)-1,2-dimethylpropyl]-1,6a,8,10a-tetramethyl-6-oxo-1,3,4,6,6a,7,8,9,10,10a,10b,11,12,12a-tetradecahydro-2H-1,4a-(methanooxymethano)chrysene-7-carboxylic acid], which IC50 is on record?
Answer: The IC50 was 161 nM.

Question: For `CC(=O)O[C@@H]1C[C@@]23COC[C@@](C)([C@@H]2CC[C@H]2C3=CC(=O)[C@@]3(C)[C@H](C(=O)O)[C@@](C)([C@H](C)C(C)C)CC[C@]23C)[C@H]1OCC(CN)CN(C)C` (stereo partly drawn) [Example 68, (1S,2R,3R,4aR,6aS,7R,8R,10aR,10bR,12aR)-3-(acetyloxy)-2-(2-aminomethyl-3-dimethylaminopropoxy)-8-[(1R)-1,2-dimethylpropyl]-1,6a,8,10a-tetramethyl-6-oxo-1,3,4,6,6a,7,8,9,10,10a,10b,11,12,12a-tetradecahydro-2H-1,4a-(methanooxymethano)chrysene-7-carboxylic acid], which IC50 is on record?
Answer: Its IC50 is 205 nM.

Question: How did the IC50 turn out when `CC(=O)O[C@@H]1C[C@@]23COC[C@](C)([C@@H]2CC[C@H]2C3=CC(=O)[C@@]3(C)[C@H](C(=O)O)[C@@](C)([C@H](C)C(C)C)CC[C@]23C)[C@H]1OCC(C)NCc1ccc(CO)o1` (stereo partly drawn) [Example 71, (1S, 2R, 3R, 4aR, 6aS, 7R, 8R, 10aR, 10bR, 12aR)-3-(acetyloxy)-2-{2-[(5-hydroxymethylfuran-2-ylmethyl)-amino]-propoxy}-8-[(1R)-1,2-dimethylpropyl]-1,6a,8,10a-tetramethyl-6-oxo-1,3,4,6,6a,7,8,9,10,10a,10b,11, 12,12a-tetradecahydro-2H-1,4a-(methanooxymethano)chrysene-7-carboxylic acid] was run?
Answer: The IC50 was 343 nM.

Question: How did the IC50 turn out when `CCCN(CCC)C(CC)COC1C(OC(C)=O)CC23COCC1(C)C2CCC1C3=CC(=O)C2(C)C(C(=O)O)C(C)(C(C)C(C)C)CCC12C` [Example 81, (1S, 2R, 3R, 4aR, 6aS, 7R, 8R, 10aR, 10bR, 12aR)-3-(acetyloxy)-2-(2-dipropylaminobutoxy)-8-[(1R)-1,2-dimethylpropyl]-1,6a,8, 10a-tetramethyl-6-oxo-1,3,4,6,6a,7,8,9,10,10a, 10b,11,12,12a-tetra decahydro-2H-1,4a-(methanooxymethano) chrysene-7-carboxylic acid] was run?
Answer: Its IC50 is 497 nM.

Question: With `CC(=O)O[C@@H]1C[C@@]23COC[C@](C)([C@@H]2CC[C@H]2C3=CC(=O)[C@@]3(C)[C@H](C(=O)O)[C@@](C)([C@H](C)C(C)C)CC[C@]23C)[C@H]1OCC(C(C)C)N1CCCCC1` (stereo partly drawn) [Example 89, (1S, 2R, 3R, 4aR, 6aS, 7R, 8R, 10aR, 10bR, 12aR)-3-(acetyloxy)-2-(3-methyl-2-piperidin-1-ylbutoxy)-8-[(1R)-1,2-dimethylpropyl]-1,6a,8, 10a-tetramethyl-6-oxo-1,3,4,6,6a,7,8,9,10,10a, 10b,11,12,12a-tetra decahydro-2H-1,4a-(methanooxymethano) chrysene-7-carboxylic acid] as the compound, how does the IC50 read?
Answer: The IC50 was 166 nM.

Question: For `CC(=O)O[C@@H]1C[C@@]23COC[C@](C)([C@@H]2CC[C@H]2C3=CC(=O)[C@@]3(C)[C@H](C(=O)O)[C@@](C)([C@H](C)C(C)C)CC[C@]23C)[C@H]1OCCCN` [Example 109, (1S, 2R, 3R, 4aR, 6aS, 7R, 8R, 10aR, 10bR, 12aR)-3-(acetyloxy)-2-(3-aminopropoxy)-8-[(1R)-1,2-dimethylpropyl]-1,6a,8,10a-tetramethyl-6-oxo-1,3,4,6,6a,7,8,9, 10,10a,10b,11,12,12a-tetradeca hydro-2H-1,4a-(methanooxymethano) chrysene-7-carboxylic acid], which IC50 is on record?
Answer: The IC50 was 155 nM.

Question: `CC(=O)O[C@@H]1C[C@@]23COC[C@@](C)([C@@H]2CC[C@H]2C3=CC(=O)[C@@]3(C)[C@H](C(=O)O)[C@@](C)([C@H](C)C(C)C)CC[C@]23C)[C@H]1OCC(C)(C)N(C)C` [Example 114, (1S,2R,3R,4aR,6aS,7R,8R,10aR,10bR,12aR)-3-(acetyloxy)-2-(2-diamino-2-methylpropoxy)-8-[(1R)-1,2-dimethylpropyl]-1,6a,8,10a-tetramethyl-6-oxo-1,3,4,6,6a,7,8,9,10,10a,10b,11,12,12a-tetradecahydro-2H-1,4a-(methanooxymethano)chrysene-7-carboxylic acid] was tested. Which IC50 did it give?
Answer: Its IC50 is 80.8 nM.

Question: Which IC50 does the source give for `CCC(C)(CO[C@H]1[C@H](OC(C)=O)C[C@@]23COC[C@]1(C)[C@@H]2CC[C@H]1C3=CC(=O)[C@@]2(C)[C@H](C(=O)O)[C@@](C)([C@H](C)C(C)C)CC[C@]12C)N(C)C` (stereo partly drawn) [Example 128, (1S, 2R, 3R, 4aR, 6aS, 7R, 8R, 10aR, 10bR, 12aR)-3-(acetyloxy)-2-(2-dimethylamino-2-methylbutyloxy)-8-[(1R)-1,2-dimethylpropyl]-1,6a,8,10a-tetramethyl-6-oxo-1,3,4,6,6a,7,8,9,10, 10a,10b,11,12,12a-tetradecahydro-2H-1,4a-(methanooxymethano)chrysene-7-carboxylic acid] here?
Answer: Its IC50 is 91.2 nM.

Question: Which IC50 does the source give for `CC(=O)O[C@@H]1C[C@@]23COC[C@@](C)([C@@H]2CC[C@H]2C3=CC(=O)[C@@]3(C)[C@H](C(=O)O)[C@@](C)([C@H](C)C(C)C)CC[C@]23C)[C@H]1OC[C@@](C)(N)C(C)C` [Example 148, (1S,2R,3R,4aR,6aS,7R,8R,10aR,10bR,12aR)-3-acetoxy-2-[[(2S)-2-amino-2,3-dimethylbutyl]oxy]-8-[(1R)-1,2-dimethylpropyl]-1,6a,8,10a-tetramethyl-6-oxo-1,3,4,6,6a,7,8,9,10,10a,10b,11,12,12a-tetradecahydro-2H-1,4a-(methanooxymethano)chrysene-7-carboxylic acid] here?
Answer: The IC50 was 20.2 nM.

Question: How did the IC50 turn out when `CN[C@](C)(CO[C@H]1[C@H](OC(C)=O)C[C@@]23COC[C@@]1(C)[C@@H]2CC[C@H]1C3=CC(=O)[C@@]2(C)[C@H](C(=O)O)[C@@](C)([C@H](C)C(C)C)CC[C@]12C)C(C)C` [Example 149, (1S,2R,3R,4aR,6aS,7R,8R,10aR,10bR,12aR)-3-(acetyloxy)-2-[(2S)-2-methylamino-2,3-dimethylbutyloxy]-8-[(1R)-1,2-dimethylpropyl]-1,6a,8,10a-tetramethyl-6-oxo-1,3,4,6,6a,7,8,9,10,10a,10b,11,12,12a-tetradecahydro-2H-1,4a-(methanooxymethano)chrysene-7-carboxylic acid] was run?
Answer: Its IC50 is 19.8 nM.

Question: With `CC(=O)O[C@@H]1C[C@@]23COC[C@@](C)([C@@H]2CC[C@H]2C3=CC(=O)[C@@]3(C)[C@H](C(=O)O)[C@@](C)([C@H](C)C(C)C)CC[C@]23C)[C@H]1OC[C@](C)(C(C)C)N(C)C` [Example 150, (1S,2R,3R,4aR,6aS,7R,8R,10aR,10bR,12aR)-3-(acetyloxy)-2-[(2S)-2-dimethylamino-2,3-dimethylbutyloxy]-8-[(1R)-1,2-dimethylpropyl]-1,6a,8,10a-tetramethyl-6-oxo-1,3,4,6,6a,7,8,9,10,10a,10b,11,12,12a-tetradecahydro-2H-1,4a-(methanooxymethano)chrysene-7-carboxylic acid] as the compound, how does the IC50 read?
Answer: The IC50 was 20.8 nM.
